According to patent US20030224978A1, “Compounds and methods for modulating apoptosis” (McGill University, priority 1996, published 2003):
Entries after “also recorded” stand apart in the source; their conditions may differ.

Experiments:
Melanoma ME 115 cells = assay: Disruption of melanoma cell adhesion, pan-cadherin immunostaining; type: cell-based, human; settings: 500 μg/mL, 48 hours
Description: Melanoma ME 115 cells (kindly provided by Meenhard Herlyn, Wistar Institute, Philadelphia, Pa.) were plated on glass coverslips and cultured for 24 hours in 50% keratinocyte growth medium (Clonetics, San Diego, Calif.) and 50% L15. Fresh medium containing the cyclic peptides (final concentration 500 μg/mL media) N-Ac-CHAVC-NH2 (SEQ ID NO:10) or N-Ac-CHGVC-NH2 (SEQ ID NO:20) was then added. Following 24 hours of culture in the presence of the peptides, the medium was removed and fresh medium containing the peptides was added. The cells were fixed 24 hours later with cold methanol and stored in phosphate buffered saline (PBS).
Coverslips were blocked for 1 hour in 3% ovalbumin/PBS and incubated for a further 1 hour in the presence of rabbit pan-cadherin antibody (Sigma Chemical Co., St. Louis, Mo.) diluted 1:500. Primary and secondary antibodies were diluted in PBS containing 6% normal goat serum. Following incubation in the primary antibody, coverslips were washed 3 times for 5 minutes each in PBS and incubated for 1 hour in goat anti-rabbit immunoglobulin G conjugated to fluorescein (Kiekegard and Perry, South San Francisco, Calif.) diluted 1:100. Following a further wash in PBS (3×5 minutes) coverslips were mounted in Vectashield (Vector Labs, Burlingame, Calif.) and viewed with a Zeiss infinity corrected microscope.

NRK cells = assay: Disruption of normal rat kidney (NRK) cell adhesion and E-cadherin immunostaining; type: cell-based; settings: 1 mg/mL, 48 hours
Description: Within another such assay, the effect of a modulating agent on normal rat kidney (NRK) cells may be evaluated. According to a representative procedure, NRK cells (ATCC #1571-CRL) may be plated at 10-20,000 cells per 35 mm tissue culture flasks containing DMEM with 10% FCS and sub-cultured periodically (Laird et al., J. Cell Biol. 131:1193-1203, 1995). Cells may be harvested and replated in 35 mm tissue culture flasks containing 1 mm coverslips and incubated until 50-65% confluent (24-36 hours). At this time, coverslips may be transferred to a 24-well plate, washed once with fresh DMEM and exposed to modulating agent at a concentration of, for example, 1 mg/mL for 24 hours. Fresh modulating agent may then be added, and the cells left for an additional 24 hours. Cells may be fixed with 100% methanol for 10 minutes and then washed three times with PBS. Coverslips may be blocked for 1 hour in 2% BSA/PBS and incubated for a further 1 hour in the presence of mouse anti-E-cadherin antibody (Transduction Labs, 1:250 dilution). Primary and secondary antibodies may be diluted in 2% BSA/PBS. Following incubation in the primary antibody, coverslips may be washed three times for 5 minutes each in PBS and incubated for 1 hour with donkey anti-mouse antibody conjugated to fluorescein (diluted 1:200). Following further washes in PBS (3×5 min) coverslips can be mounted and viewed by confocal microscopy.
In the absence of modulating agent, NRK cells form characteristic tightly adherent monolayers with a cobblestone morphology in which cells display a polygonal shape. NRK cells that are treated with a modulating agent that disrupts E-cadherin mediated cell adhesion may assume a non-polygonal and elongated morphology (i.e., a fibroblast-like shape) within 48 hours of treatment with 1 mg/mL of modulating agent. Gaps appear in confluent cultures of such cells. In addition, 1 mg/mL of such a modulating agent reproducibly induces a readily apparent reduction in cell surface staining of E-cadherin, as judged by immunofluorescence microscopy (Laird et al., J. Cell Biol. 131:1193-1203, 1995), of at least 75% within 48 hours.
NRK cells (ATCC #1571-CRL) were plated at 10-20,000 cells per 35 mm tissue culture flasks containing DMEM with 10% FCS and sub-cultured periodically (Laird et al., J. Cell Biol. 131:1193-1203, 1995). Cells were harvested and replated in 35 mm tissue culture flasks containing […] coverslips and incubated until 50-65% confluent (24-36 hours). At this time, coverslips were transferred to a 24-well plate, washed once with fresh DMEM and exposed to cyclic peptide solutions (N-Ac-CHAVC-NH2 (SEQ ID NO:10) and N-Ac-CHGVC-NH2 (SEQ ID NO:20)) at a concentration of 1 mg/mL for 24 hours. Fresh peptide solutions were then added and the cells were left for an additional 24 hours. […]

MDA-MB231 = type: cell-based, human; settings: 3 h
HUVEC = type: cell-based, human; settings: 3 h
[1] = tested on: SKOV3 human ovarian cancer cells; assay: Induction of apoptosis / cell death in SKOV3 cells, in situ cell death detection kit; type: cell-based; settings: 0.5 or 0.25 mg/mL, 48 hours
Description: Direct assays of induction of apoptosis may be performed using any standard technique. For example, cadherin-expressing cells (e.g., SKOV3 human ovarian cancer cells) may be plated onto poly-L-lysine coated glass slides and cultured with 500 μg/mL of modulating agent for 24-48 hours. Cells may then be fixed and assayed for cell death using any of a variety of well known methods. For example, an in situ cell death detection kit may be purchased from Boehringer Mannheim (Laval, Quebec) and used according to the manufacturer's instructions.
SKOV3 human ovarian cancer cells cultured in the presence of either N-Ac-CHAVC-NH2 (SEQ ID NO:10) or a control peptide (N-Ac-CHGVC-NH2; SEQ ID NO:20) in MEM with 10% FBS were plated onto poly-L-lysine coated glass slides. The cells were cultured for 24 or 48 hours and fixed with 4% paraformaldehyde for 30 minutes at room temperature. The slides were then washed three times with PBS and assessed for cell death. Cells were treated with 0.5 or 0.25 mg/mL of N-Ac-CHAVC-NH2 (SEQ ID NO:10) or the control N-Ac-CHGVC-NH2 (SEQ ID NO:20), as indicated. Cell death was measured as described by Gavrieli et al, J. Cell. Biol. 119:493-501, 1992 and using the In situ cell death detection kit (Boehringer Mannheim; Laval, Quebec).

| IC50 (MDA-MB231) | Compound | cadherin staining in melanoma ME115 cells (Melanoma ME 115 cells) | E-cadherin expression in NRK cells (immunofluorescence) (NRK cells) | effect on NRK cell adhesion (NRK cells) | IC50 (HUVEC) | cell death of SKOV3 cells [1] | effect on melanoma cell adhesion (Melanoma ME 115 cells) |
| --- | --- | --- | --- | --- | --- | --- | --- |
| > 100 µM | CC(=O)N[C@H]1CSSC[C@@H](C(N)=O)NC(=O)[C@H](C(C)C)NC(=O)CNC(=O)[C@H](Cc2c[nH]cn2)NC1=O [N-Ac-CHGVC-NH2, reference compound] | displayed cadherin staining all over the cell membrane | expressed E-cadherin | had no affect on cell adhesion | > 100 µM | – | – |
| > 100 µM | CC(=O)N[C@H]1CSSC[C@@H](C(N)=O)NC(=O)[C@H](C(C)C)NC(=O)[C@H](C)NC(=O)[C@H](Cc2c[nH]cn2)NC1=O [N-Ac-CHAVC-NH2, N-Ac-Cys-His-Ala-Val-Cys-NH2] | absence of cell membrane staining and the appearance of bright intracellular vesicular staining; also recorded: cadherin is localized in intracellular vesicles | greatly reduced levels of E-cadherin | disrupted NRK cell adhesion; also recorded: retract from one another | > 100 µM | the cells are dead; also recorded: cell death | disrupts melanoma cell adhesion |
